Source: patent EP0556720B1, “5-Aminoflavone derivatives” (KYOWA HAKKO KOGYO CO., LTD., priority 1992, dated 1993)
Counter-ions that a name gives are not always drawn.

Legend:
[1] = system: HeLaS3 cells; test: Human uterine cervix carcinoma (HeLaS3) growth inhibition test, neutral red staining; assay type: cell-based; conditions: HeLa S3, 72 hours culture with sample, absorbance at 550 nm
Protocol: Human uterine cervix carcinoma (HeLaS3) growth inhibition test;
Each 0.1 ml of HeLaS3 cells which had been prepared to 3 x 10^4/ml using a medium (referred to as Medium A hereinafter) consisted of MEM medium, 2 mM glutamine and 10% bovine fetal serum was distributed in each well of 96 well-microtiter plate. The plate was cultured at 37 °C for 20 hours in a CO2 gas incubator, each 0.05 ml of samples (test compounds) which had been appropriately diluted with Medium A was added thereto and the mixture was cultured at 37 °C for 72 hours in a CO2 gas incubator. Supernatant was removed, each 0.1 ml of Medium A containing 0.02% neutral red was added to the residue, the mixture was cultured at 37 °C for 1 hour in a CO2 gas incubator and the cells were stained. Supernatant was removed and the residue was washed once with saline. Then, the pigment was extracted with 0.001N hydrochloric acid/30% ethanol and the absorbance at 550 nm was measured with a microplatereader.

[2] = system: MCF-7 cells; test: Human mammary cancer (MCF-7) growth inhibition test, neutral red staining; assay type: cell-based; conditions: MCF7, medium with 10^-8M estradiol, 72 hours culture with sample
Protocol: Human mammary cancer (MCF-7) growth inhibition test;
Each 0.1 ml of MCF-7 cells which had been prepared to 5 x 10^4/ml using a medium (referred to as Medium B hereinafter) prepared by adding 10% bovine fetal serum, 10^-8M estradiol (manufactured by Sigma), 100 units/ml penicillin and 100 µg/ml streptomycin to medium RPMI1640 was distributed in each well of 96 well-microtiter plate. The plate was cultured at 37 °C for 20 hours in a CO2 gas incubator, each 0.05 ml of samples (test compounds) which had been appropriately diluted with Medium B was added thereto and the mixture was cultured at 37 °C for 72 hours in a CO2 gas incubator. Supernatant was removed, each 0.1 ml of Medium B containing 0.02% neutral red was added to the residue, the mixture was cultured at 37 °C for 1 hour in a CO2 gas incubator and the cells were stained. IC50 was calculated according to the same manner as that in Test 2.

IC50 [1] | IC50 [2] | SMILES
6.8 µM | 6.2 µM | CN(C)CCCCCCNc1ccc(-c2cc(=O)c3c(N)c(F)cc(F)c3o2)cc1F [Compound 53, 5-Amino-6,8-difluoro-2-[4-[6-(N',N'-dimethylamino)hexylamino]-3-fluorophenyl]-4H-1-benzopyran-4-one]
12 µM | 9.2 µM | CCCCCCNc1c(F)cc(F)c2oc(-c3ccc(NCC(=O)OCC)c(F)c3)cc(=O)c12 [Compound 74, 6,8-Difluoro-2-(4-ethoxycarbonylmethylamino-3-fluorophenyl)-5-hexylamino-4H-1-benzopyran-4-one]
– | 0.36 µM | CCOC(=O)CNc1ccc(-c2cc(=O)c3c(N)c(F)cc(F)c3o2)cc1F [Compound 44, 5-Amino-6,8-difluoro-2-(4-ethyoxycarbonylmethylamino-3-fluorophenyl)-4H-1-benzopyran-4-one]
6.1 µM | 5.9 µM | Nc1c(F)cc(F)c2oc(-c3ccc(NCCCCCCN4CCCC4)c(F)c3)cc(=O)c12 [Compound 54, 5-Amino-6,8-difluoro-2-[3-fluoro-4-[6-(pyrrolidin-1-yl)hexylamino]phenyl]-4H-1-benzopyran-4-one]
– | 0.73 µM | Nc1c(F)cc(F)c2oc(-c3ccc(NCCCCCC(=O)O)c(F)c3)cc(=O)c12 [Compound 57, Sodium salt of 5-amino-2-[4-(5-carboxypentylamino)-3-fluorophenyl]-6,8-difluoro-4H-1-benzopyran-4-one]
– | 0.63 µM | COCCCCCCNc1c(F)cc(F)c2oc(-c3ccc(N(C)C)c(F)c3)cc(=O)c12 [Compound 61, 6,8-Difluoro-2-[4-(N,N-dimethyl)amino-3-fluorophenyl]-5-(6-methoxyhexylamino)-4H-1-benzopyran-4-one]
– | 0.34 µM | CCCCCCNc1c(F)cc(F)c2oc(-c3ccc(N(C)C)c(F)c3)cc(=O)c12 [Compound 58, 6,8-Difluoro-2-[4-(N,N-dimethyl)amino-3-fluorophenyl]-5-hexylamino-4H-1-benzopyran-4-one]
– | 0.34 µM | CN(C)c1ccc(-c2cc(=O)c3c(NCCCCCCO)c(F)cc(F)c3o2)cc1F [Compound 60, 6,8-Difluoro-2-[4-(N,N-dimethyl)amino-3-fluorophenyl]-5-(6-hydroxyhexylamino)-4H-l-benzopyran-4-one]
9.4 µM | – | CCCCCCNc1c(F)cc(F)c2oc(-c3ccc(N)c(F)c3)cc(=O)c12 [Compound 67, 2-(4-Amino-3-fluorophenyl)-6,8-difluoro-5-hexylamino-4H-1-benzopyran-4-one]
7.5 µM | – | CCCCCNc1c(F)cc(F)c2oc(-c3ccc(NCCCN)c(F)c3)cc(=O)c12 [Compound 79, 2-[4-(3-Aminopropylamino)-3-fluorophenyl]-6,8-difluoro-5-pentylamino-4H-1-benzopyran-4-one]
11 µM | – | Nc1c(F)cc(F)c2oc(-c3ccc(NCCCCCCN4CCOCC4)c(F)c3)cc(=O)c12 [Compound 55, 5-Amino-6,8-difluoro-2-[3-fluoro-4-(6-morpholinohexylamino)phenyl]-4H-1-benzopyran-4-one]
– | 6 µM | CC(Cl)CCCCNc1c(F)cc(F)c2oc(-c3ccc(N)c(F)c3)cc(=O)c12 (stereo not shown) [Compound 69, 2-(4-Amino-3-fluorophenyl)-5-(5-chlorohexylamino)-6,8-difluoro-4H-1-benzopyran-4-one]
11 µM | – | C=CCCCCNc1c(F)cc(F)c2oc(-c3ccc(NC)c(F)c3)cc(=O)c12 [Compound 77, 6,8-Difluoro-2-(3-fluoro-4-methylaminophenyl)-5-(5-hexenylamino)-4H-1-benzopyran-4-one]
7 µM | – | CN(C)c1ccc(-c2cc(=O)c3c(NCCCCCCN)c(F)cc(F)c3o2)cc1F [Compound 65, 5-(6-Aminohexylamino)-6,8-difluoro-2-[4-(N,N-dimethyl)amino-3-fluorophenyl]-4H-1-benzopyran-4-one]
7 µM | – | CN(C)c1ccc(-c2cc(=O)c3c(NCCCCCCN4CCCC4)c(F)cc(F)c3o2)cc1F [Compound 63, 6,8-Difluoro-2-[4-(N,N-dimethyl)amino-3-fluorophenyl]-5-[6-(pyrrolidin-1-yl)hexylamino]-4H-1-benzopyran-4-one]
– | 0.11 µM | COCCCNc1ccc(-c2cc(=O)c3c(N)c(F)cc(F)c3o2)cc1F [Compound 46, 5-Amino-6,8-difluoro-2-[3-fluoro-4-(3-methoxypropylamino)phenyl]-4H-1-benzopyran-4-one]
– | 0.91 µM | CCOC(=O)CCCCCNc1ccc(-c2cc(=O)c3c(N)c(F)cc(F)c3o2)cc1F [Compound 56, 5-Amino-6,8-difluoro-2-[4-(5-ethoxycarbonylpentylamino)-3-fluorophenyl]-4H-1-benzopyran-4-one]
7.1 µM | – | CN(C)CCCCCCNc1c(F)cc(F)c2oc(-c3ccc(N(C)C)c(F)c3)cc(=O)c12 [Compound 62, 6,8-Difluoro-2-[4-(N,N-dimethyl)amino-3-fluorophenyl]-5-[6-(N',N'-dimethylamino)hexylamino]-4H-1-benzopyran-4-one]
12 µM | – | CC(C)CCCNc1c(F)cc(F)c2oc(-c3ccc(N)c(F)c3)cc(=O)c12 [Compound 71, 2-(4-Amino-3-fluorophenyl)-6,8-difluoro-5-(4-methylpentylamino)-4H-1-benzopyran-4-one]
3 µM | – | CN(C)c1ccc(-c2cc(=O)c3c(NCCCCCCn4ccnc4)c(F)cc(F)c3o2)cc1F [Compound 64, 6,8-Difluoro-2-[4-(N,N-dimethyl)amino-3-fluorophenyl]-5-[6-(imidazol-1-yl)hexylamino]-4H-1-benzopyran-4-one]
16 µM | – | CCCCCCNc1c(F)cc(F)c2oc(-c3ccc(NCC(=O)O)c(F)c3)cc(=O)c12 [Compound 75, 2-(4-Carboxymethylamino-3-fluorophenyl)-6,8-difluoro-5-hexylamino-4H-1-benzopyran-4-one]

More lines, now with the values behind:

SMILES | IC50 [1] | IC50 [2]
Nc1ccc(-c2cc(=O)c3c(N)ccc(Br)c3o2)cc1 [Compound 5, 5-Amino-2-(4-aminophenyl)-8-bromo-4H-1-benzopyran-4-one] | 6.1 µM | –
NCCCNc1ccc(-c2cc(=O)c3c(N)c(F)cc(F)c3o2)cc1F [Compound 30, 5-Amino-2-[4-(3-aminopropylamino)-3-fluorophenyl]-6,8-difluoro-4H-1-benzopyran-4-one] | 14 µM | 0.039 µM
Nc1c(F)cc(F)c2oc(-c3ccc(NCCN4CCOCC4)c(F)c3)cc(=O)c12 [Compound 42, 5-Amino-6,8-difluoro-2-[3-fluoro-4-(2-morpholinoethylamino)phenyl]-4H-1-benzopyran-4-one] | – | 6.1 µM
CN(C)c1ccc(-c2cc(=O)c3c(N)c(F)cc(F)c3o2)cc1F [Compound 38, 5-Amino-6,8-difluoro-2-[4-(N,N-dimethylamino)-3-fluorophenyl]-4H-1-benzopyran-4-one] | 12 µM | –
NCCCNc1ccc(-c2cc(=O)c3c(N)ccc(F)c3o2)cc1 [Compound 20, 5-Amino-2-[4-[(3-aminopropyl)amino]phenyl]-8-fluoro-4H-1-benzopyran-4-one] | 9.3 µM | 0.094 µM
Nc1c(Br)cc(-c2cc(=O)c3c(N)c(F)cc(F)c3o2)cc1Br [Compound 36, 5-Amino-2-(4-amino-3,5-dibromophenyl)-6,8-difluoro-4H-1-benzopyran-4-one] | – | 0.61 µM
Nc1ccc(-c2cc(=O)c3c(N)ccc(Cl)c3o2)cc1 [Compound 2, 5-Amino-2-(4-aminophenyl)-8-chloro-4H-1-benzopyran-4-one] | 3.2 µM | 0.37 µM
Nc1ccc(-c2cc(=O)c3c(N)c(Br)cc(Br)c3o2)cc1 [Compound 6, 5-Amino-2-(4-aminophenyl)-6,8-dibromo-4H-1-benzopyran-4-one] | – | 27 µM
Nc1ccc(-c2cc(=O)c3c(N)c(F)ccc3o2)cc1 [Compound 8, 5-Amino-2-(4-aminophenyl)-6-fluoro-4H-1-benzopyran-4-one] | – | 0.14 µM
Nc1ccc(-c2cc(=O)c3c(N)c(Cl)cc(Cl)c3o2)cc1 [Compound 3, 5-Amino-2-(4-aminophenyl)-6,8-dichloro-4H-1-benzopyran-4-one] | 33 µM | 22 µM
CN(C)CCNc1ccc(-c2cc(=O)c3c(N)c(F)cc(F)c3o2)cc1F [Compound 40, 5-Amino-2-[4-[2-(N',N'-dimethylamino)ethylamino]-3-fluorophenyl]-6,8-difluoro-4H-1-benzopyran-4-one] | – | 0.23 µM
Nc1ccc(-c2cc(=O)c3c(N)ccc(F)c3o2)cc1 [Compound 10, 5-Amino-2-(4-aminophenyl)-8-fluoro-4H-1-benzopyran-4-one] | 21 µM | 0.25 µM
Nc1c(F)cc(F)c2oc(-c3ccc(NCCN4CCCC4)c(F)c3)cc(=O)c12 [Compound 41, 5-Amino-6,8-difluoro-2-[3-fluoro-4-[2-(pyrrolidin-1-yl)ethylamino]phenyl]-4H-1-benzopyran-4-one] | 5 µM | –
Nc1c(Cl)cc(-c2cc(=O)c3c(N)c(F)cc(F)c3o2)cc1Cl [Compound 35, 5-Amino-2-(4-amino-3,5-dichlorophenyl)-6,8-difluoro-4H-1-benzopyran-4-one] | – | 0.17 µM
